Data on 1 compound can be found in ChEMBL document CHEMBL2062379, “Cleavage mechanism and anti-tumor activity of 3,6-epidioxy-1,10-bisaboladiene isolated from edible wild plants” (Bioorg Med Chem, 2012).

Calls of active or inactive are those of the source. No cut-off for these calls is given here.

The subject of one data set is SNB-78. Briefly: Growth inhibition of human SNB78 cells. The format is functional.
The next data set has as its system HCT-15. As to the kind of experiment: Growth inhibition of human HCT15 cells. Type of data set: functional.
A further data set has as its system OVCAR-8. Briefly: Growth inhibition of human OVCAR8 cells. The format is functional.
Another data set deals with ACHN. Briefly: Growth inhibition of human ACHN cells. Type of data set: functional.
Data set [1] is described as follows: Growth inhibition of human MKN1 cells. The format is functional. The settings on record: MKN-1.
The next data set relates to MKN-7. As to the kind of experiment: Growth inhibition of human MKN7 cells. The format is functional.
The next data set deals with Mus musculus. As to the kind of experiment: Toxicity in nude mouse bearing human LOXIMVI cells assessed as change in body weight at 25 mg/kg, iv administered on day 1, 6 and 11. The settings on record: in vivo. Set-up: dose 25 mg/kg, route intravenous. Type of data set: organism-based, LOX IMVI.
The test system of data set [2] is Saccharomyces cerevisiae. Briefly: Growth restoration activity in cdc2-1 rad9-deficient Saccharomyces cerevisiae assessed as growth zone at 4 ug/disc incubated at 37 degC for 6 hrs and 28 degC for 2 days. Type of data set: functional.
In data set [3] the test system is Saccharomyces cerevisiae. As to the kind of experiment: Growth restoration activity in cdc2-1 rad9-deficient Saccharomyces cerevisiae assessed as growth zone at 1 ug/disc incubated at 37 degC for 6 hrs and 28 degC for 2 days. Type of data set: functional.
In data set [4] the test system is Saccharomyces cerevisiae. As to the kind of experiment: Growth restoration activity in cdc2-1 rad9-deficient Saccharomyces cerevisiae assessed as growth zone at 0.5 ug/disc incubated at 37 degC for 6 hrs and 28 degC for 2 days. Type of data set: functional.
The test system of data set [5] is HL-60. As to the kind of experiment: Induction of apoptosis in human HL60 cells assessed as caspase 9 activation after 1 to 6 hrs by spectrophotometric analysis. The format is functional, cell-based.
Data set [6] has as its system HL-60. As to the kind of experiment: Induction of apoptosis in human HL60 cells assessed as DNA fragmentation after 24 hrs by Hoechst staining-based microscopic analysis preincubated with 20 uM p38 MAPK inhibitor SB203580. The format is functional, cell-based.
The nature of data set [7]: Prodrug conversion in buffer at pH 8 assessed as (1)- 7-(1,5-Dimethyl-hex-4-enyl)-4-methyl-3,8-dioxa-tricyclo[5.1.0.0*2,4*]octane formation after 24 hrs by HPLC analysis in presence of 25 mM FeSO4. Type of data set: physicochemical. The settings on record: pH 8, 24 h.
In data set [8] the test system is HL-60. Briefly: Cytotoxicity against human HL60 cells after 48 hrs by MTT assay in presence of DFOM. The settings on record: HL-60, 48 h. The format is functional, cell-based. For orientation: Formazan colour is commonly taken as a measure of viable cells.
For data set [9], the system named is HL-60. Briefly: Cytotoxicity against human HL60 cells assessed as cell viability at 2 uM by MTT assay in presence of 20 uM FeSO4. Type of data set: functional.
For data set [10], the system named is HL-60. As to the kind of experiment: Cytotoxicity against human HL60 cells assessed as cell viability at 2 uM by MTT assay in presence of 20 uM Fe2(SO4)3. The format is functional.
The subject of data set [11] is HL-60. Briefly: Induction of ROS generation in human HL60 cells at 10 uM measured immediately by spectrofluorometric analysis. The format is functional, cell-based.
The subject of data set [12] is HL-60. As to the kind of experiment: Induction of apoptosis in human HL60 cells assessed as DNA fragmentation after 24 hrs by Hoechst staining-based microscopic analysis in presence of 50 uM superoxide scavenger allopurinol. The format is functional, cell-based.
Data set [13] is described as follows: Growth inhibition of human HBC4 cells. The format is functional.
Data set [14] can be described thus: Growth inhibition of human HBC5 cells. Type of data set: functional.

For orientation: GI50 means the concentration giving 50% growth inhibition. The term IC50 denotes the concentration that gives 50% inhibition. As for `CC(C)=CCCC(C)C12C=CC(C)(CC1)OO2` (stereo not given), the GI50 in the data set with SNB-78 is 1550 nM; in the data set on HCT-15 it was 4900 nM; in the data set on OVCAR-8, 12000 nM; with ACHN it was 1230 nM; in data set [1], 1740 nM; with MKN-7 it was 3630 nM. In addition, the concentration for 50% growth inhibition (GI50) in data set [13] was 1120 nM; in data set [14], 191 nM. For the same compound, the Activity result in the data set on Mus musculus is “Non-toxic”; in the data set on Saccharomyces cerevisiae [2], 29 mm; in the data set with Saccharomyces cerevisiae [3] it was 19 mm; in the data set with Saccharomyces cerevisiae [4] it was 0 mm; with HL-60 [5], “Dose-dependent effect”; with HL-60 [9], 33.2%. For the same compound, in the data set with HL-60 [10], the Activity is listed as 34.9%. Besides, the result in the data set with HL-60 [6] was inactive. The Drug metabolism result in data set [7] is “Active”. Further, the IC50 in the data set with HL-60 [8] turned out to be 35500 nM. For the same compound, the outcome in the data set with HL-60 [11] and with HL-60 [12] was Active.
